The values below come from patent publication US9464056B2, “Fungicidal 4-methylanilino pyrazoles” (E. I. DU PONT DE NEMOURS AND COMPANY, priority 2012, dated 2016).

The test system of data set [1] is Botrytis cinerea. The data set is described as follows: Test A: preventive spray on tomato seedlings, Botrytis cinerea (tomato Botrytis), visual disease rating. Format: in vivo. The conditions noted are these: 100 = 100% disease control, 0 = no disease control relative to controls. The text has this:
General protocol for preparing test suspensions for Tests A-H: the test compounds were first dissolved in acetone in an amount equal to 3% of the final volume and then suspended at the desired concentration (in ppm) in acetone and purified water (50/50 mix by volume) containing 250 ppm of the surfactant Trem® 014 (polyhydric alcohol esters). The resulting test suspensions were then used in Tests A-F. Spraying a 40 ppm test suspension to the point of run-off on the test plants was the equivalent of a rate of 160 g/ha. Unless otherwise indicated, the rating values indicate a 40 ppm test suspension was used. The test suspension was sprayed to the point of run-off on tomato seedlings. The following day the seedlings were inoculated with a spore suspension of Botrytis cinerea (the causal agent of tomato Botrytis) and incubated in saturated atmosphere at 20° C. for 48 h, and then moved to a growth chamber at 27° C. for 3 days, after which time visual disease ratings were made. Results for Tests A-F are given in Table A. In the Table, a rating of 100 indicates 100% disease control and a rating of 0 indicates no disease control (relative to the controls). A dash (-) indicates no test results.

Data set [2] deals with Septoria nodorum. The data set is described as follows: Test C: preventive spray on wheat seedlings, Septoria nodorum (Septoria glume blotch), visual disease rating. The class given is in vivo. The conditions noted are these: Parastagonospora nodorum, topical, 264 h, 100 = 100% disease control, 0 = no disease control relative to controls. The text has this: General protocol for preparing test suspensions for Tests A-H: the test compounds were first dissolved in acetone in an amount equal to 3% of the final volume and then suspended at the desired concentration (in ppm) in acetone and purified water (50/50 mix by volume) containing 250 ppm of the surfactant Trem® 014 (polyhydric alcohol esters). The resulting test suspensions were then used in Tests A-F. Spraying a 40 ppm test suspension to the point of run-off on the test plants was the equivalent of a rate of 160 g/ha. Unless otherwise indicated, the rating values indicate a 40 ppm test suspension was used. The test suspension was sprayed to the point of run-off on wheat seedlings. The following day the seedlings were inoculated with a spore suspension of Septoria nodorum (the causal agent of Septoria glume blotch) and incubated in a saturated atmosphere at 20° C. for 48 h, and then moved to a growth chamber at 20° C. for 9 days, after which time visual disease ratings were made. Results for Tests A-F are given in Table A. In the Table, a rating of 100 indicates 100% disease control and a rating of 0 indicates no disease control (relative to the controls). A dash (-) indicates no test results.

For data set [3], the system named is Septoria tritici. The data set is described as follows: Test D: preventive spray on wheat seedlings, Septoria tritici (wheat leaf blotch), visual disease rating. The class given is in vivo. The conditions noted are these: Zymoseptoria tritici, topical, 504 h, 100 = 100% disease control, 0 = no disease control relative to controls. The source says: General protocol for preparing test suspensions for Tests A-H: the test compounds were first dissolved in acetone in an amount equal to 3% of the final volume and then suspended at the desired concentration (in ppm) in acetone and purified water (50/50 mix by volume) containing 250 ppm of the surfactant Trem® 014 (polyhydric alcohol esters). The resulting test suspensions were then used in Tests A-F. Spraying a 40 ppm test suspension to the point of run-off on the test plants was the equivalent of a rate of 160 g/ha. Unless otherwise indicated, the rating values indicate a 40 ppm test suspension was used. The test suspension was sprayed to the point of run-off on wheat seedlings. The following day the seedlings were inoculated with a spore suspension of Septoria tritici (the causal agent of wheat leaf blotch) and incubated in saturated atmosphere at 24° C. for 48 h, and then moved to a growth chamber at 20° C. for 19 days, after which time visual disease ratings were made. Results for Tests A-F are given in Table A. In the Table, a rating of 100 indicates 100% disease control and a rating of 0 indicates no disease control (relative to the controls). A dash (-) indicates no test results.

The test system of data set [4] is Puccinia recondita f. sp. tritici. The data set is described as follows: Test E2: preventive spray on wheat seedlings, Puccinia recondita f. sp. tritici (wheat leaf rust), visual disease rating. The class given is in vivo. The conditions noted are these: topical, 192 h, 100 = 100% disease control, 0 = no disease control relative to controls. The text has this: (§1) General protocol for preparing test suspensions for Tests A-H: the test compounds were first dissolved in acetone in an amount equal to 3% of the final volume and then suspended at the desired concentration (in ppm) in acetone and purified water (50/50 mix by volume) containing 250 ppm of the surfactant Trem® 014 (polyhydric alcohol esters). The resulting test suspensions were then used in Tests A-F. Spraying a 40 ppm test suspension to the point of run-off on the test plants was the equivalent of a rate of 160 g/ha. Unless otherwise indicated, the rating values indicate a 40 ppm test suspension was used. The test suspension was sprayed to the point of run-off on wheat seedlings. The following day the seedlings were inoculated with a spore suspension of Puccinia recondita f. sp. tritici (the causal agent of wheat leaf rust) and incubated in a saturated atmosphere at 20° C. for 24 h, and then moved to a growth chamber at 20° C. for 7 days, after which time visual disease ratings were made. Results for Tests A-F are given in Table A. In the Table, a rating of 100 indicates 100% disease control and a rating of 0 indicates no disease control (relative to the controls). A dash (-) indicates no test results.

Data set [5] deals with Blumeria graminis f. sp. tritici. The data set is described as follows: Test F: preventive spray on wheat seedlings, Blumeria graminis f. sp. tritici (wheat powdery mildew), visual disease rating. Format: in vivo. The conditions noted are these: topical, 192 h, 100 = 100% disease control, 0 = no disease control relative to controls.
Description: as §1, with “spore dust” for “spore suspension”, “of Blumeria graminis” for “of Puccinia recondita”, “tritici (also known as Erysiphe graminis f. sp. tritici, the” for “tritici (the”, “wheat powdery mildew)” for “wheat leaf rust)”, “in” for “in a saturated atmosphere at 20° C. for 24 h, and then moved to”, “for 8” for “for 7”

The structures appear in SMILES notation.

Compound `Cc1cc(Cl)c(Nc2c(-c3ccc(F)cc3Cl)c(C)nn2C)c(Cl)c1` [Compound 13, 4-(2-chloro-4-fluorophenyl)-N-(2,6-dichloro-4-methylphenyl)-1,3-dimethyl-1H-pyrazol-5-amine] came in with a melting point of 188 to 189 °C. Also, the pest or weed control at 40 µg/mL in data set [1] stood at 100%. In data set [2], this compound yielded a pest or weed control at 40 µg/mL of 0%. The compound further yielded a pest or weed control at 40 µg/mL in data set [3] of 100%. Further, the pest or weed control at 40 µg/mL in data set [4] is 100%. Further, the pest or weed control at 40 µg/mL in data set [5] was determined as 100%.

As to `Cc1ccc(Nc2c(-c3ccc(F)cc3Br)c(C)nn2C)c(Cl)c1` [Compound 4, 4-(2-bromo-4-fluorophenyl)-N-(2-chloro-4-methylphenyl)-1,3-dimethyl-1H-pyrazol-5-amine], the pest or weed control at 40 µg/mL in data set [1] is 100%; in data set [2] it was 0%; in data set [3], 100%; in data set [4], 97%; in data set [5], 97%.

`Cc1cc(F)c(Nc2c(-c3ccc(F)cc3Cl)c(C)nn2C)c(Cl)c1` [Compound 12, N-(2-chloro-6-fluoro-4-methylphenyl)-4-(2-chloro-4-fluorophenyl)-1,3-dimethyl-1H-pyrazol-5-amine] yielded a melting point of 137 to 138 °C.

Turning to `Cc1ccc(Nc2c(-c3ccc(F)cc3Cl)c(C)nn2C)c(Cl)c1` [Compound 2, 4-(2-chloro-4-fluorophenyl)-N-(2-chloro-4-methylphenyl)-1,3-dimethyl-1H-pyrazol-5-amine], the pest or weed control at 40 µg/mL in data set [1] amounted to 100%; in data set [2], 0%; in data set [3], 100%; in data set [4], 95%; in data set [5] it was 97%.

On to `Cc1cc(F)c(Nc2c(-c3ccc(F)cc3Br)c(C)nn2C)c(Cl)c1` [Compound 11, 4-(2-bromo-4-fluorophenyl)-N-(2-chloro-6-fluoro-4-methylphenyl)-1,3-dimethyl-1H-pyrazol-5-amine], for which the melting point was in the range of 145 to 146 °C.

For `Cc1cc(F)c(Nc2c(-c3ccc(F)cc3F)c(C)nn2C)c(F)c1` [Compound 9, N-(2,6-difluoro-4-methylphenyl)-4-(2,4-difluorophenyl)-1,3-dimethyl-1H-pyrazol-5-amine], the melting point was 156 to 158 °C. The same compound gave a pest or weed control at 40 µg/mL in data set [1] of 100%. Besides, the pest or weed control at 40 µg/mL in data set [2] is 96%. In data set [3], this compound gave a pest or weed control at 40 µg/mL of 100%. The pest or weed control at 40 µg/mL in data set [4] was 96%. In data set [5], this compound came in with a pest or weed control at 40 µg/mL of 100%.

The compound `Cc1cc(Cl)c(Nc2c(-c3ccc(F)cc3F)c(C)nn2C)c(Cl)c1` [Compound 16, N-(2,6-dichloro-4-methylphenyl)-4-(2,4-difluorophenyl)-1,3-dimethyl-1H-pyrazol-5-amine] returned a melting point of 147 to 149 °C. Moreover, in data set [1], the pest or weed control at 40 µg/mL is 100%. This compound also displayed a pest or weed control at 40 µg/mL in data set [2] of 97%. Also, the pest or weed control at 40 µg/mL in data set [3] worked out at 73%. Also, the pest or weed control at 40 µg/mL in data set [4] is 100%. In addition, in data set [5], the pest or weed control at 40 µg/mL worked out at 99%.

As for `Cc1cc(F)c(Nc2c(-c3ccc(F)cc3F)c(C)nn2C)c(Br)c1` [Compound 8, N-(2-bromo-6-fluoro-4-methylphenyl)-4-(2,4-difluorophenyl)-1,3-dimethyl-1H-pyrazol-5-amine], the melting point lay in the range of 143 to 144 °C. This compound yielded a pest or weed control at 40 µg/mL in data set [1] of 100%. The compound also displayed a pest or weed control at 40 µg/mL in data set [2] of 97%. The compound also returned a pest or weed control at 40 µg/mL in data set [3] of 100%. Besides, the pest or weed control at 40 µg/mL in data set [4] was 100%. For the same compound, the pest or weed control at 40 µg/mL in data set [5] was 100%.

The compound `Cc1cc(F)c(Nc2c(-c3ccc(F)cc3Cl)c(C)nn2C)c(F)c1` [Compound 10, 4-(2-chloro-4-fluorophenyl)-N-(2,6-difluoro-4-methylphenyl)-1,3-dimethyl-1H-pyrazol-5-amine] came in with a melting point of 121 to 123 °C. This compound yielded a pest or weed control at 40 µg/mL in data set [1] of 100%. The pest or weed control at 40 µg/mL in data set [2] turned out to be 90%. In addition, in data set [3], the pest or weed control at 40 µg/mL was determined as 100%. In data set [4], the pest or weed control at 40 µg/mL was 100%. In data set [5], this compound gave a pest or weed control at 40 µg/mL of 100%.

Regarding `Cc1ccc(Nc2c(-c3ccc(F)cc3Cl)c(C)nn2C)c(Br)c1` [Compound 3, N-(2-bromo-4-methylphenyl)-4-(2-chloro-4-fluorophenyl)-1,3-dimethyl-1H-pyrazol-5-amine], the pest or weed control at 40 µg/mL was found to be 99% in data set [1]; 0% in data set [2]; 100% in data set [3]; 99% in data set [4]; 96% in data set [5].

The compound `Cc1cc(Cl)c(Nc2c(-c3ccc(F)cc3Br)c(C)nn2C)c(Cl)c1` [Compound 15, 4-(2-bromo-4-fluorophenyl)-N-(2,6-dichloro-4-methylphenyl)-1,3-dimethyl-1H-pyrazol-5-amine] showed a melting point of 191 to 192 °C. Also, the pest or weed control at 40 µg/mL in data set [1] came to 100%. The compound also showed a pest or weed control at 40 µg/mL in data set [2] of 0%. Moreover, the pest or weed control at 40 µg/mL in data set [3] was determined as 100%. In data set [4], the pest or weed control at 40 µg/mL amounted to 100%. The compound also registered a pest or weed control at 40 µg/mL in data set [5] of 99%.

In the case of `Cc1ccc(Nc2c(-c3ccc(F)cc3Cl)c(C)nn2C)c(F)c1` [Compound 6, 4-(2-chloro-4-fluorophenyl)-N-(2-fluoro-4-methylphenyl)-1,3-dimethyl-1H-pyrazol-5-amine], the pest or weed control at 40 µg/mL turned out to be 99% in data set [1]; 0% in data set [2]; 100% in data set [3]; 0% in data set [4]; 100% in data set [5].

With `Cc1ccc(Nc2c(-c3ccc(F)cc3Br)c(C)nn2C)c(Br)c1` [Compound 5, 4-(2-bromo-4-fluorophenyl)-N-(2-bromo-4-methylphenyl)-1,3-dimethyl-1H-pyrazol-5-amine], the pest or weed control at 40 µg/mL in data set [1] amounted to 99%; in data set [2], 0%; in data set [3], 100%; in data set [4] it was 97%; in data set [5], 97%.

By pest or weed control is commonly meant the degree to which the test organism was suppressed or injured, in per cent. One may read the melting point as the temperature of the solid-liquid transition.
